Assay results reported in PubChem BioAssay (NCI).
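Interpolation was linear, between the two tested concentrations surrounding the appropriate level; five concentrations were tested over 48 hours in 96-well plates. Abbreviation: GI50, concentration required for 50% inhibition of growth. TGI: concentration producing complete growth inhibition.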

Tests used:
Experiment in all cases: DTP human tumour cell line panel, 48 h
COLO 205 colon = tested on: COLO 205 colon
PC-3 prostate = tested on: PC-3 prostate
LOX IMVI melanoma = tested on: LOX IMVI melanoma
MOLT-4 leukemia = tested on: MOLT-4 leukemia
DU-145 prostate = tested on: DU-145 prostate
NCI/ADR-RES ovarian = tested on: NCI/ADR-RES ovarian
K-562 leukemia = tested on: K-562 leukemia
HS 578T breast = tested on: HS 578T breast
U251 CNS = tested on: U251 CNS
NCI-H23 lung = tested on: NCI-H23 lung
RXF 393 renal = tested on: RXF 393 renal
A498 renal = tested on: A498 renal
TK-10 renal = tested on: TK-10 renal
BT-549 breast = tested on: BT-549 breast
SK-MEL-28 melanoma = tested on: SK-MEL-28 melanoma
MALME-3M melanoma = tested on: MALME-3M melanoma
UACC-257 melanoma = tested on: UACC-257 melanoma
SR leukemia = tested on: SR leukemia
MDA-MB-231 breast = tested on: MDA-MB-231 breast
UO-31 renal = tested on: UO-31 renal
HCC-2998 colon = tested on: HCC-2998 colon
SNB-75 CNS = tested on: SNB-75 CNS
SK-MEL-5 melanoma = tested on: SK-MEL-5 melanoma
IGROV1 ovarian = tested on: IGROV1 ovarian
NCI-H522 lung = tested on: NCI-H522 lung
OVCAR-3 ovarian = tested on: OVCAR-3 ovarian
HL-60(TB) leukemia = tested on: HL-60(TB) leukemia
KM12 colon = tested on: KM12 colon
SN12C renal = tested on: SN12C renal
OVCAR-8 ovarian = tested on: OVCAR-8 ovarian
A549 NSCLC = tested on: A549 NSCLC
SK-MEL-2 melanoma = tested on: SK-MEL-2 melanoma
CCRF-CEM leukemia = tested on: CCRF-CEM leukemia
UACC-62 melanoma = tested on: UACC-62 melanoma
T-47D breast = tested on: T-47D breast
HOP-92 NSCLC = tested on: HOP-92 NSCLC
SNB-19 CNS = tested on: SNB-19 CNS
HOP-62 NSCLC = tested on: HOP-62 NSCLC
RPMI-8226 leukemia = tested on: RPMI-8226 leukemia
SK-OV-3 ovarian = tested on: SK-OV-3 ovarian
OVCAR-4 ovarian = tested on: OVCAR-4 ovarian
OVCAR-5 ovarian = tested on: OVCAR-5 ovarian
NCI-H460 lung = tested on: NCI-H460 lung
NCI-H226 lung = tested on: NCI-H226 lung
CAKI-1 renal = tested on: CAKI-1 renal
HCT-15 colon = tested on: HCT-15 colon
HT29 colon = tested on: HT29 colon
SF-295 CNS = tested on: SF-295 CNS
HCT-116 colon = tested on: HCT-116 colon
MCF7 breast = tested on: MCF7 breast
ACHN renal = tested on: ACHN renal
SF-268 CNS = tested on: SF-268 CNS
MDA-MB-435 = tested on: MDA-MB-435
SF-539 CNS = tested on: SF-539 CNS
M14 melanoma = tested on: M14 melanoma
786-0 renal = tested on: 786-0 renal
SW-620 colon = tested on: SW-620 colon
EKVX NSCLC = tested on: EKVX NSCLC

Compound: CC(CO)Nc1cc(-c2[nH]c3cccnc3c2-c2ccc(F)cc2)ccn1 (stereo not given)
- GI50 (COLO 205 colon): 13.8 µM
- TGI (COLO 205 colon): > 25 µM
- GI50 (PC-3 prostate): 21.5 µM
- TGI (PC-3 prostate): > 25 µM
- GI50 (LOX IMVI melanoma): 13.7 µM
- TGI (LOX IMVI melanoma): > 25 µM
- GI50 (MOLT-4 leukemia): > 25 µM
- TGI (MOLT-4 leukemia): > 25 µM
- GI50 (DU-145 prostate): 17.6 µM
- TGI (DU-145 prostate): > 25 µM
- GI50 (NCI/ADR-RES ovarian): > 25 µM
- TGI (NCI/ADR-RES ovarian): > 25 µM
- GI50 (K-562 leukemia): 23.4 µM
- TGI (K-562 leukemia): > 25 µM
- GI50 (HS 578T breast): 16.8 µM
- TGI (HS 578T breast): > 25 µM
- GI50 (U251 CNS): 15.4 µM
- TGI (U251 CNS): > 25 µM
- GI50 (NCI-H23 lung): > 25 µM
- TGI (NCI-H23 lung): > 25 µM
- GI50 (RXF 393 renal): 12.5 µM
- TGI (RXF 393 renal): > 25 µM
- GI50 (A498 renal): 4.36 µM
- TGI (A498 renal): 25 µM
- GI50 (TK-10 renal): 6.86 µM
- TGI (TK-10 renal): > 25 µM
- GI50 (BT-549 breast): 16.1 µM
- TGI (BT-549 breast): > 25 µM
- GI50 (SK-MEL-28 melanoma): > 25 µM
- TGI (SK-MEL-28 melanoma): > 25 µM
- GI50 (MALME-3M melanoma): 16.9 µM
- TGI (MALME-3M melanoma): > 25 µM
- GI50 (UACC-257 melanoma): > 25 µM
- TGI (UACC-257 melanoma): > 25 µM
- GI50 (SR leukemia): 17 µM
- TGI (SR leukemia): > 25 µM
- GI50 (MDA-MB-231 breast): 19.3 µM
- TGI (MDA-MB-231 breast): > 25 µM
- GI50 (UO-31 renal): 3.89 µM
- TGI (UO-31 renal): > 25 µM
- GI50 (HCC-2998 colon): > 25 µM
- TGI (HCC-2998 colon): > 25 µM
- GI50 (SNB-75 CNS): 14.8 µM
- TGI (SNB-75 CNS): > 25 µM
- GI50 (SK-MEL-5 melanoma): 10.3 µM
- TGI (SK-MEL-5 melanoma): > 25 µM
- GI50 (IGROV1 ovarian): 6.77 µM
- TGI (IGROV1 ovarian): > 25 µM
- GI50 (NCI-H522 lung): > 25 µM
- TGI (NCI-H522 lung): > 25 µM
- GI50 (OVCAR-3 ovarian): 16.8 µM
- TGI (OVCAR-3 ovarian): > 25 µM
- GI50 (HL-60(TB) leukemia): > 25 µM
- TGI (HL-60(TB) leukemia): > 25 µM
- GI50 (KM12 colon): 19.1 µM
- TGI (KM12 colon): > 25 µM
- GI50 (SN12C renal): 15.1 µM
- TGI (SN12C renal): > 25 µM
- GI50 (OVCAR-8 ovarian): 15.7 µM
- TGI (OVCAR-8 ovarian): > 25 µM
- GI50 (A549 NSCLC): 8.47 µM
- TGI (A549 NSCLC): > 25 µM
- GI50 (SK-MEL-2 melanoma): > 25 µM
- TGI (SK-MEL-2 melanoma): > 25 µM
- GI50 (CCRF-CEM leukemia): > 25 µM
- TGI (CCRF-CEM leukemia): > 25 µM
- GI50 (UACC-62 melanoma): 11.4 µM
- TGI (UACC-62 melanoma): > 25 µM
- GI50 (T-47D breast): 17.1 µM
- TGI (T-47D breast): > 25 µM
- GI50 (HOP-92 NSCLC): 2.74 µM
- TGI (HOP-92 NSCLC): > 25 µM
- GI50 (SNB-19 CNS): > 21.6 µM
- TGI (SNB-19 CNS): > 25 µM
- GI50 (HOP-62 NSCLC): > 25 µM
- TGI (HOP-62 NSCLC): > 25 µM
- GI50 (RPMI-8226 leukemia): 17 µM
- TGI (RPMI-8226 leukemia): > 25 µM
- GI50 (SK-OV-3 ovarian): 15 µM
- TGI (SK-OV-3 ovarian): > 25 µM
- GI50 (OVCAR-4 ovarian): > 25 µM
- TGI (OVCAR-4 ovarian): > 25 µM
- GI50 (OVCAR-5 ovarian): 22.8 µM
- TGI (OVCAR-5 ovarian): > 25 µM
- GI50 (NCI-H460 lung): 8.16 µM
- TGI (NCI-H460 lung): > 25 µM
- GI50 (NCI-H226 lung): > 23.8 µM
- TGI (NCI-H226 lung): > 25 µM
- GI50 (CAKI-1 renal): 8.23 µM
- TGI (CAKI-1 renal): > 25 µM
- GI50 (HCT-15 colon): 10.4 µM
- TGI (HCT-15 colon): > 25 µM
- GI50 (HT29 colon): 9.77 µM
- TGI (HT29 colon): > 25 µM
- GI50 (SF-295 CNS): > 25 µM
- TGI (SF-295 CNS): > 25 µM
- GI50 (HCT-116 colon): 13.4 µM
- TGI (HCT-116 colon): > 25 µM
- GI50 (MCF7 breast): 9.36 µM
- TGI (MCF7 breast): > 25 µM
- GI50 (ACHN renal): 3.99 µM
- TGI (ACHN renal): > 25 µM
- GI50 (SF-268 CNS): 16.7 µM
- TGI (SF-268 CNS): > 25 µM
- GI50 (MDA-MB-435): > 22.4 µM
- TGI (MDA-MB-435): > 25 µM
- GI50 (SF-539 CNS): > 25 µM
- TGI (SF-539 CNS): > 25 µM
- GI50 (M14 melanoma): > 25 µM
- TGI (M14 melanoma): > 25 µM
- GI50 (786-0 renal): 18.6 µM
- TGI (786-0 renal): > 25 µM
- GI50 (SW-620 colon): 20.3 µM
- TGI (SW-620 colon): > 25 µM

Compound: Cc1ccc(C(=N)c2ccccc2Cc2cccc3ccccc23)c2ccccc12
- TGI (COLO 205 colon): > 100 µM
- TGI (PC-3 prostate): > 100 µM
- TGI (LOX IMVI melanoma): > 100 µM
- TGI (MOLT-4 leukemia): > 100 µM
- TGI (DU-145 prostate): > 100 µM
- TGI (NCI/ADR-RES ovarian): > 100 µM
- TGI (K-562 leukemia): > 100 µM
- TGI (HS 578T breast): > 100 µM
- TGI (U251 CNS): > 100 µM
- TGI (NCI-H23 lung): > 100 µM
- TGI (RXF 393 renal): > 100 µM
- TGI (A498 renal): > 100 µM
- TGI (TK-10 renal): > 100 µM
- TGI (BT-549 breast): > 100 µM
- TGI (SK-MEL-28 melanoma): > 100 µM
- TGI (MALME-3M melanoma): > 100 µM
- TGI (UACC-257 melanoma): > 100 µM
- TGI (SR leukemia): > 100 µM
- TGI (MDA-MB-231 breast): > 100 µM
- TGI (UO-31 renal): > 100 µM
- TGI (SNB-75 CNS): > 100 µM
- TGI (SK-MEL-5 melanoma): > 100 µM
- TGI (IGROV1 ovarian): > 100 µM
- TGI (NCI-H522 lung): > 100 µM
- TGI (EKVX NSCLC): > 100 µM
- TGI (OVCAR-3 ovarian): > 100 µM
- TGI (HL-60(TB) leukemia): > 100 µM
- TGI (KM12 colon): > 100 µM
- TGI (SN12C renal): > 100 µM
- TGI (OVCAR-8 ovarian): > 100 µM
- TGI (A549 NSCLC): > 100 µM
- TGI (SK-MEL-2 melanoma): > 100 µM
- TGI (CCRF-CEM leukemia): > 100 µM
- TGI (UACC-62 melanoma): > 100 µM
- TGI (T-47D breast): > 100 µM
- TGI (HOP-92 NSCLC): > 100 µM
- TGI (SNB-19 CNS): > 100 µM
- TGI (HOP-62 NSCLC): > 100 µM
- TGI (SK-OV-3 ovarian): > 100 µM
- TGI (OVCAR-4 ovarian): > 100 µM
- TGI (OVCAR-5 ovarian): > 100 µM
- TGI (NCI-H460 lung): > 100 µM
- TGI (NCI-H226 lung): > 100 µM
- TGI (CAKI-1 renal): > 100 µM
- TGI (HCT-15 colon): > 100 µM
- TGI (HT29 colon): > 100 µM
- TGI (SF-295 CNS): > 100 µM
- TGI (HCT-116 colon): > 100 µM
- TGI (MCF7 breast): > 100 µM
- TGI (ACHN renal): > 100 µM
- TGI (SF-268 CNS): > 100 µM
- TGI (MDA-MB-435): > 100 µM
- TGI (SF-539 CNS): > 100 µM
- TGI (M14 melanoma): > 100 µM
- TGI (786-0 renal): > 100 µM
- TGI (SW-620 colon): > 100 µM
